Tests used:
U-937 leukemia cells = experiment: Cell cycle analysis by flow cytometry (propidium iodide); format: cell-based, human
Experimental: Induction of apoptosis in cancer cells is recognized as an efficient strategy for cancer chemotherapy. For this reason, it was decided to determine whether these compounds display their cytotoxic action through alterations in cell cycle progression and induction of cell apotosis. To this end, the effects at different time periods (6, 12 and 24 h) with different concentrations (10 and 30 μM) of 8f and 8k on cell cycle progression on U-937 leukemia cells were investigated by flow cytometry analyses.
Flow cytometric analysis of propidium iodide-stained cells was performed as previously described. Briefly, U-937 cells were treated with the indicated compounds at the specified concentrations in RPMI 1640 medium. After treatments, cells were centrifuged for 10 min at 500× g, washed with cold phosphate-buffered saline (PBS), fixed with ice-cold 75% ethanol and stored at −20 °C for at least 1 h. Samples were then centrifuged at 500 × g for 10 min at 4 °C, washed with PBS, resuspended in 200 μL of PBS containing 100 μg mL^−1 RNase A and 50 μg mL^−1 propidium iodide and incubated for 1 h in the dark. The DNA content was analyzed by flow cytometry with a Becton-Dickinson FACSVerse^TM cytometer (BD Biosciences, San Jose, CA, USA). The percentage of cells in each phase of the cell cycle was determined for a minimum of 10^4 cells, and histograms were analyzed with Flowing 2.5.0 software.

U-937 = experiment: Antiproliferative activity, MTT assay, U-937 cells; format: cell-based, human; settings: Homo sapiens, U-937; 72 h, MTT; mean ± SE, at least three independent experiments
Description: (§1) In Table 1, we summarize the antiproliferative activity of the 15 novel 2-arylalkylamino-4-amino-5-(3′,4′,5′-trimethoxybenzoyl)thiazole derivatives 8a–o against human leukemia (U-937) and melanoma (SK-MEL-1) tumor cells lines.
(§2) Human U-937 and SK-MEL-1 cell lines were from the German Collection of Microorganisms and Cell Cultures (Braunschweig, Germany; DSMZ No: ACC 5 and ACC 303, respectively). The U-937 is a myeloid leukemia cell line isolated from a histiocytic lymphoma. SK-MEL-1 is a melanoma cell line. Cells were cultured in suspension in RPMI 1640 medium supplemented with 10% (v/v) fetal bovine serum and antibiotics (100 μg mL^−1 streptomycin and 100 U mL^−1 penicillin), at 37 °C in a humidified atmosphere containing 5% CO2. The trypan blue exclusion method was used for counting the cells by a hemocytometer, and cell viability was always greater than 95% in all experiments. Compounds were dissolved in DMSO, and further dilutions were made in culture medium just before use. […] The effects on cell viability of synthetic compounds were determined using a colorimetric assay with the reduction of 3-(4,5-dimethyl-2-thiazolyl-)-2,5-diphenyl-2H-tetrazolium bromide (MTT) as previously described. Briefly, 5 × 10^3 cells were seeded in 96-well microculture plates with increasing concentrations of compounds for 72 h. Then, MTT (0.5 mg mL^−1) was added and incubated for 4 h, and the reaction was stopped with 20% sodium dodecyl sulfate. A570 was used as a measure of cell viability. Concentrations inducing a 50% inhibition of cell growth were determined graphically by nonlinear regression using the curve-fitting algorithm of GraphPad Prism 4.0 (GraphPad Inc La Jolla, CA, USA).

SK-MEL-1 = experiment: Antiproliferative activity, MTT assay, SK-MEL-1 cells; format: cell-based, human; settings: for IC50: Homo sapiens, SK-MEL-1, 72 h, MTT, mean ± SE, at least three independent experiments
Description: as §1, §2

CDK6/Cyclin D3 = target: T1, CDK6/Cyclin D3 (Homo sapiens, UniProt Q00534); experiment: In vitro CDK inhibition assay (ADP-Glo), CDK6; format: biochemical; settings: single concentration of 10 μM; range over CDK4, CDK6, CDK9 and 8f, 8k; read-out: enzyme inhibition CDK6
T1 construct: purchased Promega
T1 sequence (Q00534 whole entry): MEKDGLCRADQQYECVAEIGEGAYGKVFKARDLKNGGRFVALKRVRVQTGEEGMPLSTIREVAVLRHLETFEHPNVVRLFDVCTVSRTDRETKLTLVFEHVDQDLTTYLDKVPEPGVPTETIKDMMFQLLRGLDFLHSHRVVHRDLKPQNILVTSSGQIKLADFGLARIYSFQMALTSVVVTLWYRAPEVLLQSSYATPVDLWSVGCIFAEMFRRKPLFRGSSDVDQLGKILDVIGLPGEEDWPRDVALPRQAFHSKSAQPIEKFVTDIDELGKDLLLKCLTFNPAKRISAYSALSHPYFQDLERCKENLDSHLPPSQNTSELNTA
T1 sequence (P30281 whole entry partner): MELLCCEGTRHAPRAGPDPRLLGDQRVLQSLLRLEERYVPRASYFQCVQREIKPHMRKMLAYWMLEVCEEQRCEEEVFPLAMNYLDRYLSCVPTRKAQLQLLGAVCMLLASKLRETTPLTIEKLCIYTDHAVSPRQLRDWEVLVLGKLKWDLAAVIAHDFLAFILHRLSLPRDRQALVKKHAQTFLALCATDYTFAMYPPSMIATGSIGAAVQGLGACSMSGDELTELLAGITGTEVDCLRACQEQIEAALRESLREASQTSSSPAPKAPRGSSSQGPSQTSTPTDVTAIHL
Experimental: (§3) The CDK4, 6 and 9 inhibitory activies were determined using the CDK4/Cyclin D1 Assay kit (ProQinase, Freiburg im Breisgau, Germany), CDK6/Cyclin D3 Kinase Enzyme System (Promega, Milan, Italy) and CDK9/CyclinK Kinase Enzyme System (Promega) by ADP-Glo CDK assays following the manufacturer’s instructions. The assay was performed with the test compounds at 10 μM.

Bovine brain tubulin = experiment: Inhibition of tubulin polymerization (turbidimetric assembly); format: biochemical
Experimental: Bovine brain tubulin was purified as described previously. To evaluate the effect of the compounds on tubulin assembly in vitro [31], varying concentrations were preincubated with 10 μM tubulin in glutamate buffer at 30 °C and then cooled to 0 °C. After addition of GTP, the mixtures were transferred to 0 °C cuvettes in a recording spectrophotometer and warmed to 30 °C, and the assembly of tubulin was observed turbidimetrically. The IC50 was defined as the compound concentration that inhibited the extent of assembly by 50% after a 20 min incubation.

CDK4/Cyclin D1 = target: T2, CDK4/Cyclin D1 (Homo sapiens, UniProt P11802); experiment: In vitro CDK inhibition assay (ADP-Glo), CDK4; format: biochemical; settings: single concentration of 10 μM; range over CDK4, CDK6, CDK9 and 8f, 8k; read-out: enzyme inhibition CDK4
T2 construct: purchased ProQinase
T2 sequence (P11802 whole entry): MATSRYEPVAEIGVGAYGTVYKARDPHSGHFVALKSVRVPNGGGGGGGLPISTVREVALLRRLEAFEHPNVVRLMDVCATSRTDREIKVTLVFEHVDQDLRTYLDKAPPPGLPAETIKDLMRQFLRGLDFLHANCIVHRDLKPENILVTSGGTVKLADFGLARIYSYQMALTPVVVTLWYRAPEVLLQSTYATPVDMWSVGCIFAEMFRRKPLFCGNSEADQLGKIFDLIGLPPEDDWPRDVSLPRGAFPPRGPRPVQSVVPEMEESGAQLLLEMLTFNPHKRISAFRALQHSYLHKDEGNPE
T2 sequence (P24385 whole entry partner): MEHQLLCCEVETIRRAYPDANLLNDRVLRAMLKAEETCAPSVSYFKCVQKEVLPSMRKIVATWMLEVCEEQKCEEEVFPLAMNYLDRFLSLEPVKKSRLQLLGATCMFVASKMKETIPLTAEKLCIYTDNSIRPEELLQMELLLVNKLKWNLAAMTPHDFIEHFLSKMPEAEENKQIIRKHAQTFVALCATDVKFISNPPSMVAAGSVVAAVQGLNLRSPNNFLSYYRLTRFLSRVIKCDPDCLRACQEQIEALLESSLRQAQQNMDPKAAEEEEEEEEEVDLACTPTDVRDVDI
Experimental: as §3

[1] = Cytotoxicity against peripheral blood lymphocytes, MTT assay; format: cell-based; settings: human, peripheral blood lymphocytes (PBL) from healthy donors, read-out: IC50 cytotoxic activity against normal cells (PBL)
Experimental: In order to investigate the selective antiproliferative activity of the new synthesized compounds, we tested representative derivatives 8f and 8k against peripheral blood lymphocytes (PBL) isolated from healthy donors.
PBLs from healthy donors were obtained by separation on Lymphoprep (Fresenius KABI Norge AS, Halden, Norway) gradient. After extensive washing, cells were resuspended (1.0 × 10^6 cells/mL) in RPMI-1640 with 10% fetal bovine serum and incubated overnight in a 96-well tissue culture microtiter plate. Varying compound concentrations were added to the cells, and the MTT assay was used to assess viability after a 48 h treatment.

CDK9/CyclinK = target: T3, CDK9/CyclinK (Homo sapiens, UniProt P50750); experiment: In vitro CDK inhibition assay (ADP-Glo), CDK9; format: biochemical; settings: single concentration of 10 μM; range over CDK4, CDK6, CDK9 and 8f, 8k; read-out: enzyme inhibition CDK9
T3 construct: purchased Promega
T3 sequence (P50750 whole entry): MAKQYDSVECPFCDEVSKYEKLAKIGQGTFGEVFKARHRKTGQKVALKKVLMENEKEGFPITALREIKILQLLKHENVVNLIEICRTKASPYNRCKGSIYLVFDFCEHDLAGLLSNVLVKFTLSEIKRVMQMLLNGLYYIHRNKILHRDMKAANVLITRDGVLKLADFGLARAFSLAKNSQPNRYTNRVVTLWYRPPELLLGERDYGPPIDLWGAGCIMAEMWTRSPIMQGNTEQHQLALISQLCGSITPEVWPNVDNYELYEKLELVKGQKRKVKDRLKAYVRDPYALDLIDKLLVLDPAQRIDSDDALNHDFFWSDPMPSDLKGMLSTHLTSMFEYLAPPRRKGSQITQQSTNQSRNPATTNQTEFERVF
T3 sequence (O75909 whole entry partner): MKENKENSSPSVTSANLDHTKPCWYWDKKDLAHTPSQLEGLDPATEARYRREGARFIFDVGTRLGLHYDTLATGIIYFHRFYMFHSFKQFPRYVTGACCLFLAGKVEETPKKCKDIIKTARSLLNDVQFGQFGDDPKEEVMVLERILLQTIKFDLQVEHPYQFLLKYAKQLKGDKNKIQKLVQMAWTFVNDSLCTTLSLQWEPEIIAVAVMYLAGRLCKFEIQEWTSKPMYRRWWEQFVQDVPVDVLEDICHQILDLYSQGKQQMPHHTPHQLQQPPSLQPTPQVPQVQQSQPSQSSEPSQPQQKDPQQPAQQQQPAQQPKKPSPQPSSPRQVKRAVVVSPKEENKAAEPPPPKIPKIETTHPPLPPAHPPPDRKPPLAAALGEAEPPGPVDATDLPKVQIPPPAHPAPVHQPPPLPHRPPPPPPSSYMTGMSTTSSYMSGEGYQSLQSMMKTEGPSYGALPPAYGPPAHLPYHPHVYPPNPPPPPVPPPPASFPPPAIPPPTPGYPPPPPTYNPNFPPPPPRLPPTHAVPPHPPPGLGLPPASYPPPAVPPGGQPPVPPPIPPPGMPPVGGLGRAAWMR
Experimental: as §3

## COc1cc(C(=O)c2sc(NCCc3ccc(Cl)cc3)nc2N)cc(OC)c1OC [8f, (4-Amino-2-((4-chlorophenethyl)amino)thiazol-5-yl)(3,4,5-trimethoxyphenyl)methanone]
U-937 leukemia cells; 6 h, 10 µM
  % G1: 40.4 ± 1.0 %
  % G2-M: 23.6 ± 1.3%
  % S: 29.3 ± 0.1 %
  % Sub-G1: 4.4 ± 0.5%
U-937 leukemia cells; 6 h, 30 µM
  % G1: 40.5 ± 1.6 %
  % G2-M: 23.3 ± 1.4%
  % S: 30.9 ± 0.4 %
  % Sub-G1: 3.8 ± 0.1%
U-937 leukemia cells; 12 h, 10 µM
  % G1: 47.8 ± 1.0%
  % G2-M: 21.5 ± 1.2%
  % S: 22.4 ± 0.2%
  % Sub-G1: 6.5 ± 0.2 %
U-937 leukemia cells; 12 h, 30 µM
  % G1: 27.4 ± 0.4 %
  % G2-M: 27.6 ± 0.6 %
  % S: 25.5 ± 0.1 %
  % Sub-G1: 17.8 ± 1.0 %
U-937 leukemia cells; 24 h, 10 µM
  % G1: 42.5 ± 0.3 %
  % G2-M: 15.0 ± 0.8%
  % S: 29.8 ± 0.3 %
  % Sub-G1: 10.3 ± 0.7 %
U-937 leukemia cells; 24 h, 30 µM
  % G1: 12.6 ± 0.7 %
  % G2-M: 16.6 ± 0.8%
  % S: 13.6 ± 0.6 %
  % Sub-G1: 56.2 ± 2.0 %
  increase of apoptotic cells with respect to control cells: approximately 16.5 fold
U-937
  IC50: 6.7 ± 3.6 µM
SK-MEL-1
  IC50: 12.2 ± 3.2 µM
CDK6/Cyclin D3
  inhibition at 10 µM: 2 to 8%
Bovine brain tubulin; 10 μM tubulin, 20 min incubation at 30 °C
  IC50: > 20 µM
Bovine brain tubulin; at high concentrations (up to 20 μM)
  inhibition of tubulin polymerization: did not show any noteworthy inhibition
CDK4/Cyclin D1
  inhibition at 10 µM: 2 to 8%
[1]
  IC50 at 48 h: > 100 µM
CDK9/CyclinK
  inhibition at 10 µM: 2 to 8%

## COc1ccc(CNc2nc(N)c(C(=O)c3cc(OC)c(OC)c(OC)c3)s2)cc1 [8j, (4-Amino-2-((4-methoxybenzyl)amino)thiazol-5-yl)(3,4,5-trimethoxyphenyl)methanone]
other
  melting point: 131 to 135 °C
U-937
  IC50: 23.8 ± 5.2 µM
SK-MEL-1
  IC50: 22.9 ± 13.7 µM

## COc1ccc(Nc2nc(N)c(C(=O)c3cc(OC)c(OC)c(OC)c3)s2)cc1 [2a, reference compound]
U-937
  IC50: 0.484 ± 0.368 µM
SK-MEL-1
  IC50: 5.2 ± 1.4 µM

## COc1cccc2c1C(=O)c1c(O)c3c(c(O)c1C2=O)C[C@@](O)(C(=O)CO)C[C@@H]3O[C@H]1C[C@H](N)[C@H](O)[C@H](C)O1 [Doxorubicin, reference compound]
U-937
  IC50: 0.083 ± 0.021 µM
SK-MEL-1
  IC50: 0.274 ± 0.07 µM

## COc1cc(C(=O)c2sc(NCCc3ccccc3)nc2N)cc(OC)c1OC [8b, (4-Amino-2-(phenethylamino)thiazol-5-yl)(3,4,5-trimethoxyphenyl)methanone]
other
  melting point: 135 to 138 °C
U-937
  IC50: 19.3 ± 5.6 µM
SK-MEL-1
  IC50: 20.5 ± 6.9 µM

## COc1cc(C(=O)c2sc(NCc3ccc4c(c3)OCO4)nc2N)cc(OC)c1OC [8o, (4-Amino-2-((benzo[d][1,3]dioxol-5-ylmethyl)amino)thiazol-5-yl)(3,4,5-trimethoxyphenyl) methanone]
other
  melting point: 156 to 158 °C
U-937
  IC50: 27 ± 0.9 µM
SK-MEL-1
  IC50: 24.7 ± 1 µM

## COc1cc(C(=O)c2sc(NCc3ccc(F)cc3)nc2N)cc(OC)c1OC [8d, (4-Amino-2-((4-fluorobenzyl)amino)thiazol-5-yl)(3,4,5-trimethoxyphenyl)methanone]
other
  melting point: 132 to 134 °C
U-937
  IC50: 39.1 ± 4.2 µM
SK-MEL-1
  IC50: 51 ± 1.4 µM

## COc1cc(C(=O)c2sc(NCc3ccc(Cl)cc3)nc2N)cc(OC)c1OC [8e, (4-Amino-2-((4-chlorobenzyl)amino)thiazol-5-yl)(3,4,5-trimethoxyphenyl)methanone]
other
  melting point: 156 to 159 °C
U-937
  IC50: 8.7 ± 5.4 µM
SK-MEL-1
  IC50: 8.3 ± 5.5 µM
SK-MEL-1; SK-MEL-1 cells
  fold more potent than 8f: 1.5 fold

## COc1ccc(-c2nc(N)c(C(=O)c3cc(OC)c(OC)c(OC)c3)s2)cc1 [1a, reference compound]
U-937
  IC50: 34.3 ± 2.2 µM
SK-MEL-1
  IC50: 48.3 ± 4.6 µM

— paper PMC7248693, “Synthesis and Biological Evaluation of 2-Substituted Benzyl-/Phenylethylamino-4-amino-5-aroylthiazoles as Apoptosis-Inducing Anticancer Agents” (Molecules, 2020)
